The target of assay [1] is T1, TLR7 (Mus musculus, UniProt P58681).
T1 construct: HEK-Blue-mTLR7 reporter cells
T1 sequence (P58681 27-1050): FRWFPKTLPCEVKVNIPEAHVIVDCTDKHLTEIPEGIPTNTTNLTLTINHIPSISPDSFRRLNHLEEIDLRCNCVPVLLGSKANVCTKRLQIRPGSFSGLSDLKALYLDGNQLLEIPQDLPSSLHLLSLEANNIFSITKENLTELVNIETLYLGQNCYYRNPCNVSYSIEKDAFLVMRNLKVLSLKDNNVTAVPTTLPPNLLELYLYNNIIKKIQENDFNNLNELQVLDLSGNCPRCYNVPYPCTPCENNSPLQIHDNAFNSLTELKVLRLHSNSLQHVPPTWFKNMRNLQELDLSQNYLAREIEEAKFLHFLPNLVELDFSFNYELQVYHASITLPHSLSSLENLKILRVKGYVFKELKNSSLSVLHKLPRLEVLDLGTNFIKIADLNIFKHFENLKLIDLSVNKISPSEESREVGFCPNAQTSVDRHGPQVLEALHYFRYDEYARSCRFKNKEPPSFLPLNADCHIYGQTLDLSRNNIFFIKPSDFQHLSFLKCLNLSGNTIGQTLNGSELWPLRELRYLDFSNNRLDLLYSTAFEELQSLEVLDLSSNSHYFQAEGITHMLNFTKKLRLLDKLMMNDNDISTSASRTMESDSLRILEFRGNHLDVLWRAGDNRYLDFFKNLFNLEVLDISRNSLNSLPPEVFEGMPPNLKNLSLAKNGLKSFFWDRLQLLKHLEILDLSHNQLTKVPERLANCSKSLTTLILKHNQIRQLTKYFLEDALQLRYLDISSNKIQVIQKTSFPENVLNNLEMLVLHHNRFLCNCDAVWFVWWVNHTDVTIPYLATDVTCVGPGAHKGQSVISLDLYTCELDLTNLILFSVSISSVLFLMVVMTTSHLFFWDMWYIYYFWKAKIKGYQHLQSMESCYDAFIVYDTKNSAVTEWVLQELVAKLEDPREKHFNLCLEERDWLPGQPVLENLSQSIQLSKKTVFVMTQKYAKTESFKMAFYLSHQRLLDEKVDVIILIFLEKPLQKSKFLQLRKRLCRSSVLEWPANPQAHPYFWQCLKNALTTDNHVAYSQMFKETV
The experiment in a line: NF-kB reporter HEK293 cells expressing murine TLR7 (agonism; lowest active concentration). It is filed as cell-based.

Assay [2] deals with T2, TLR7 (Homo sapiens, UniProt Q9NYK1).
T2 construct: HEK-Blue-hTLR7 reporter cells
T2 sequence (Q9NYK1 27-1049): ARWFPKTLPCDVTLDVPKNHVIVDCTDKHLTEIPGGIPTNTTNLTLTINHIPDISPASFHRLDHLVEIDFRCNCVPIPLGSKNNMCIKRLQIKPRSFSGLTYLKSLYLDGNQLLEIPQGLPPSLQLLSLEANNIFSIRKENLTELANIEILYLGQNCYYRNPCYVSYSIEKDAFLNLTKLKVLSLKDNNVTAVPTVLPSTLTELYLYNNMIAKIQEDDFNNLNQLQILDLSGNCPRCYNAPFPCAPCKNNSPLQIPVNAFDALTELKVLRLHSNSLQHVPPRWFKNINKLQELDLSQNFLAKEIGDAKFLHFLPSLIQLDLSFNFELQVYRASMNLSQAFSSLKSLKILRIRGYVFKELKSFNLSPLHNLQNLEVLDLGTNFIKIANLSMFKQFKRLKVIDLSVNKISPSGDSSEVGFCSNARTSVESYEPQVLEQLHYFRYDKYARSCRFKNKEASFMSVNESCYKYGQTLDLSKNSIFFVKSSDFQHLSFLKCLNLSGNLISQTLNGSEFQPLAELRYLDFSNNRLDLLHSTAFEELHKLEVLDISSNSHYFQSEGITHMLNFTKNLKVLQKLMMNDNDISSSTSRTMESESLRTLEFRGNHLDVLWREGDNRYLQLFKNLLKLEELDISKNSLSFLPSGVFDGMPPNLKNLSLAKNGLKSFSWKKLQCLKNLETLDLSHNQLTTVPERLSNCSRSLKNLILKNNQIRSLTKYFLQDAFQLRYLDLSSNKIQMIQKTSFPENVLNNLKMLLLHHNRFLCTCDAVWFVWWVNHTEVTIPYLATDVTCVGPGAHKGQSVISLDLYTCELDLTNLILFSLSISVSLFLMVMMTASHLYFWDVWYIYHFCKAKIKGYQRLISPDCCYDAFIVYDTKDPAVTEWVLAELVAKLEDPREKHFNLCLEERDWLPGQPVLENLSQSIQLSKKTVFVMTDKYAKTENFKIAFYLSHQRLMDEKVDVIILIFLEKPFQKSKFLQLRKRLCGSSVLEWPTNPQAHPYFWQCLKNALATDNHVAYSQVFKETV
The experiment in a line: NF-kB reporter HEK293 cells expressing human TLR7 (agonism; lowest active concentration). Format: cell-based.

As for `CC(C)Cn1cnc2c(N)nc3ccccc3c21` [imiquimod], on TLR7 [1], the “NF-kB reporter HEK293 cells expressing murine TLR7 (agonism); lowest active conce” value turned out to be 4.16 µM. Also, the “NF-kB reporter HEK293 cells expressing human TLR7 (agonism); lowest active concen” value on TLR7 [2] stood at 4.16 µM.

(Values after article PMC5552358, “Imidazoquinoxaline anticancer derivatives and imiquimod interact with tubulin: Characterization of molecular microtubule inhibiting mechanisms in correlation with cytotoxicity” (PLoS ONE, 2017).)
